Measured values: US5486601A, “Trisazo dye, and aqueous ink composition containing the same” (priority 1993, dated 1996)
Counter-ions that a name gives are not always drawn. Like-named read-outs stand apart in the source and are kept apart here.

How the values were obtained:
[1] = AMES test / mutagenicity as stated in general text; conditions: dye intermediate
[2] = Solubility of dye (Na salt) in water; type: physicochemical
Protocol: Evaluation Method of Solubility of Dye
A Na salt (2 g) of the resulting dye was dissolved in water (10 g), and the dye solution was filtered and concentrated/dried to determine a solubility (g of dye/100 g of water) of the dye.

strain TA98 = assay: AMES test (reverse mutagenicity test), strain TA98, with and without S-9; type: cell-based; conditions: TA98, with and without S9, 20 to 5000 μg/plate
Protocol: (§1) Regarding specimen solutions containing the trisazo compounds (dyes) of the present invention obtained in Examples 1 to 9 and dyes of Comparative Examples 1 to 3, respectively, the total number of the mutant colony was determined using the strain TA98. When the resulting magnification is not more than 2, it is evaluated as "negative". On the other hand, when the resulting magnification is not less than 2, it is evaluated as "positive".
(§2) In Table 1, the modification in case that no drug-metabolizing active enzyme S-9 is added is shown in the column "-" and the modification in case that a drug-metabolizing active enzyme S-9 is added is shown in the column "+".

[3] = background statement on known dyes; cited from earlier work
[4] = AMES test (reverse mutagenicity test), strain TA98, with and without S-9; type: cell-based; conditions: read-out: magnification of the total number of the mutant colony to the control
Protocol: as §1, §2

[5] = Stability of tetrazonium salt; type: physicochemical
[6] = s9, TA98, with S9, 313 μg/plate
[7] = s9, TA98, with S9, 1250 μg/plate
[8] = s9, TA98, with S9, 5000 μg/plate
[9] = s9, TA98, without S9, 20 μg/plate
[10] = s9, TA98, without S9, 78 μg/plate
[11] = s9, TA98, without S9, 313 μg/plate
[12] = s9, TA98, without S9, 1250 μg/plate
[13] = s9, TA98, without S9, 5000 μg/plate

Nc1ccc(C2(c3ccc(N)cc3)CCCCC2)cc1 [1,1-bis(4-aminophenyl)cyclohexane]
mutagenicity [1]: negative

Nc1ccc(N=Nc2ccc(N=Nc3c(S(=O)(=O)[O-])cc4cc(S(=O)(=O)[O-])c(N=Nc5ccc(N=Nc6ccc(N)cc6N)cc5)c(O)c4c3N)cc2)c(N)c1.[Na+].[Na+] [Comparative Example 1, C.I. Direct Black 19, reference compound]
Solubility Dye(g)/water (100 g) [2]: 20 g of dye/100 g of water
Solubility Evaluation [2]: .circleincircle. (solubility is not less than 15)
AMES Evaluation (strain TA98): Positive (when the resulting magnification is not less than 2, it is evaluated as "positive")
results of AMES test [3]: false positive or positive

Cc1cc(-c2ccc(N=Nc3c(S(=O)(=O)[O-])cc4cc(S(=O)(=O)[O-])c(N=Nc5ccccc5)c(O)c4c3N)c(C)c2)ccc1N=Nc1ccc(N)cc1N.[Na+].[Na+] [Comparative Example 2, C.I. Direct Black 154, reference compound]
Solubility Dye(g)/water (100 g) [2]: 20 g of dye/100 g of water
Solubility Evaluation [2]: .circleincircle. (solubility is not less than 15)
AMES Evaluation (strain TA98): Positive (when the resulting magnification is not less than 2, it is evaluated as "positive")
results of AMES test [3]: false positive or positive

CCCCc1ccc(N=Nc2c(S(=O)(=O)O)cc3cc(S(=O)(=O)O)c(N=Nc4ccc(C5(c6ccc(N=Nc7ccc(N)cc7O)cc6)CCCCC5)cc4)c(N)c3c2O)cc1 [Example 1]
Solubility Dye(g)/water (100 g) [2]: 12 g of dye/100 g of water
Solubility Evaluation [2]: .smallcircle. (solubility is within a range from 10 to 15)
fold induction ([4]; s9, TA98, with S9, 20 μg/plate): 1.21
fold induction ([4]; s9, TA98, with S9, 78 μg/plate): 1.03
fold induction [4, 6]: 0.9
fold induction [4, 7]: 0.63
fold induction [4, 8]: 0.69
fold induction [4, 9]: 0.91
fold induction [4, 10]: 0.86
fold induction [4, 11]: 0.91
fold induction [4, 12]: 0.95
fold induction [4, 13]: 0.5
AMES Evaluation (strain TA98): Negative (When the resulting magnification is not more than 2, it is evaluated as "negative")

CCCCc1ccc(N=Nc2c(S(=O)(=O)O)cc3cc(S(=O)(=O)O)c(N=Nc4ccc(C5(c6ccc(N=Nc7ccc(O)cc7O)cc6)CCCCC5)cc4)c(N)c3c2O)cc1 [Example 2]
Solubility Dye(g)/water (100 g) [2]: 15 g of dye/100 g of water
Solubility Evaluation [2]: .circleincircle. (solubility is not less than 15)
fold induction ([4]; s9, TA98, with S9, 20 μg/plate): 1.09
fold induction ([4]; s9, TA98, with S9, 78 μg/plate): 1.09
fold induction [4, 6]: 0.55
fold induction [4, 7]: 0.55
fold induction [4, 8]: 0.42
fold induction [4, 9]: 0.78
fold induction [4, 10]: 0.7
fold induction [4, 11]: 0.61
fold induction [4, 12]: 0.39
fold induction [4, 13]: 0.3
AMES Evaluation (strain TA98): Negative (When the resulting magnification is not more than 2, it is evaluated as "negative")

CCC(C)c1ccc(N=Nc2c(S(=O)(=O)O)cc3cc(S(=O)(=O)O)c(N=Nc4ccc(C5(c6ccc(N=Nc7ccc(N)cc7O)cc6)CCCCC5)cc4)c(N)c3c2O)cc1 (stereo not shown) [Example 3]
Solubility Dye(g)/water (100 g) [2]: 12 g of dye/100 g of water
Solubility Evaluation [2]: .smallcircle. (solubility is within a range from 10 to 15)
fold induction ([4]; s9, TA98, with S9, 20 μg/plate): 0.81
fold induction ([4]; s9, TA98, with S9, 78 μg/plate): 1.31
fold induction [4, 6]: 1
fold induction [4, 7]: 0.56
fold induction [4, 8]: 0.69
fold induction [4, 9]: 0.81
fold induction [4, 10]: 0.5
fold induction [4, 11]: 0.5
fold induction [4, 12]: 0.5
fold induction [4, 13]: 0.69
AMES Evaluation (strain TA98): Negative (When the resulting magnification is not more than 2, it is evaluated as "negative")

Nc1ccc(N=Nc2ccc(C3(c4ccc(N=Nc5c(S(=O)(=O)O)cc6cc(S(=O)(=O)O)c(N=Nc7ccccc7)c(O)c6c5N)cc4)CCCCC3)cc2)c(O)c1 [Example 4]
Solubility Dye(g)/water (100 g) [2]: 15 g of dye/100 g of water
Solubility Evaluation [2]: .circleincircle. (solubility is not less than 15)
fold induction ([4]; s9, TA98, with S9, 20 μg/plate): 1.44
fold induction ([4]; s9, TA98, with S9, 78 μg/plate): 1.4
fold induction [4, 6]: 1.08
fold induction [4, 7]: 1.16
fold induction [4, 8]: 0.96
fold induction [4, 9]: 1
fold induction [4, 10]: 0.93
fold induction [4, 11]: 1.07
fold induction [4, 12]: 0.87
fold induction [4, 13]: 0.93
AMES Evaluation (strain TA98): Negative (When the resulting magnification is not more than 2, it is evaluated as "negative")

CC(C)c1ccc(N=Nc2c(S(=O)(=O)O)cc3cc(S(=O)(=O)O)c(N=Nc4ccc(C5(c6ccc(N=Nc7ccc(N)cc7O)cc6)CCCCC5)cc4)c(N)c3c2O)cc1 [Example 5]
Solubility Dye(g)/water (100 g) [2]: 13 g of dye/100 g of water
Solubility Evaluation [2]: .smallcircle. (solubility is within a range from 10 to 15)
fold induction ([4]; s9, TA98, with S9, 20 μg/plate): 1.77
fold induction ([4]; s9, TA98, with S9, 78 μg/plate): 1.27
fold induction [4, 6]: 1.41
fold induction [4, 7]: 1.45
fold induction [4, 8]: 1.05
fold induction [4, 9]: 0.9
fold induction [4, 10]: 0.76
fold induction [4, 11]: 1.07
fold induction [4, 12]: 0.83
fold induction [4, 13]: 0.48
AMES Evaluation (strain TA98): Negative (When the resulting magnification is not more than 2, it is evaluated as "negative")

Cc1ccc(N=Nc2c(S(=O)(=O)O)cc3cc(S(=O)(=O)O)c(N=Nc4ccc(C5(c6ccc(N=Nc7ccc(N)cc7O)cc6)CCCCC5)cc4)c(N)c3c2O)cc1 [Example 6]
Solubility Dye(g)/water (100 g) [2]: 15 g of dye/100 g of water
Solubility Evaluation [2]: .circleincircle. (solubility is not less than 15)
fold induction ([4]; s9, TA98, with S9, 20 μg/plate): 1.38
fold induction ([4]; s9, TA98, with S9, 78 μg/plate): 1.43
fold induction [4, 6]: 0.95
fold induction [4, 7]: 0.68
fold induction [4, 8]: 0.65
fold induction [4, 9]: 1.19
fold induction [4, 10]: 1.22
fold induction [4, 11]: 1.48
fold induction [4, 12]: 1.3
fold induction [4, 13]: 1.15
AMES Evaluation (strain TA98): Negative (When the resulting magnification is not more than 2, it is evaluated as "negative")

CCCCc1ccc(N=Nc2c(S(=O)(=O)O)cc3cc(S(=O)(=O)O)c(N=Nc4ccc(C5(c6ccc(N=Nc7ccc(N(CC)CC)cc7C)cc6)CCCCC5)cc4)c(N)c3c2O)cc1 [Example 7]
Solubility Dye(g)/water (100 g) [2]: 12 g of dye/100 g of water
Solubility Evaluation [2]: .smallcircle. (solubility is within a range from 10 to 15)
fold induction ([4]; s9, TA98, with S9, 20 μg/plate): 1.03
fold induction ([4]; s9, TA98, with S9, 78 μg/plate): 0.92
fold induction [4, 6]: 0.81
fold induction [4, 7]: 1.08
fold induction [4, 8]: 1.03
fold induction [4, 9]: 1.05
fold induction [4, 10]: 1.1
fold induction [4, 11]: 0.9
fold induction [4, 12]: 0.62
fold induction [4, 13]: 1.1
AMES Evaluation (strain TA98): Negative (When the resulting magnification is not more than 2, it is evaluated as "negative")

CCCCc1ccc(N=Nc2c(S(=O)(=O)O)cc3cc(S(=O)(=O)O)c(N=Nc4ccc(C5(c6ccc(N=Nc7ccc(N(C)C)cc7C(=O)O)cc6)CCCCC5)cc4)c(N)c3c2O)cc1 [Example 8]
Solubility Dye(g)/water (100 g) [2]: 15 g of dye/100 g of water
Solubility Evaluation [2]: .circleincircle. (solubility is not less than 15)
fold induction ([4]; s9, TA98, with S9, 20 μg/plate): 1.13
fold induction ([4]; s9, TA98, with S9, 78 μg/plate): 0.94
fold induction [4, 6]: 1.06
fold induction [4, 7]: 0.53
fold induction [4, 8]: 0.59
fold induction [4, 9]: 0.76
fold induction [4, 10]: 0.86
fold induction [4, 11]: 0.86
fold induction [4, 12]: 0.76
fold induction [4, 13]: 0.71
AMES Evaluation (strain TA98): Negative (When the resulting magnification is not more than 2, it is evaluated as "negative")

CCCCc1ccc(N=Nc2c(S(=O)(=O)O)cc3cc(S(=O)(=O)O)c(N=Nc4ccc(C5(c6ccc(N=Nc7ccc(N(C)C)cc7O)cc6)CCCCC5)cc4)c(N)c3c2O)cc1 [Example 9]
Solubility Dye(g)/water (100 g) [2]: 12 g of dye/100 g of water
Solubility Evaluation [2]: .smallcircle. (solubility is within a range from 10 to 15)
fold induction ([4]; s9, TA98, with S9, 20 μg/plate): 1.15
fold induction ([4]; s9, TA98, with S9, 78 μg/plate): 1.37
fold induction [4, 6]: 0.77
fold induction [4, 7]: 0.41
fold induction [4, 8]: 0.59
fold induction [4, 9]: 0.77
fold induction [4, 10]: 0.73
fold induction [4, 11]: 0.58
fold induction [4, 12]: 0.38
fold induction [4, 13]: 0.54
AMES Evaluation (strain TA98): Negative (When the resulting magnification is not more than 2, it is evaluated as "negative")

N#[N+]c1ccc(C2(c3ccc([N+]#N)cc3)CCCCC2)cc1 [tetrazonium salt, tetrazonium salt of 1,1-bis(4-aminophenyl)cyclohexane]
stability of tetrazonium salt [5]: comparatively stable

C.I. Direct Black 168 [Comparative Example 3, reference compound]
Solubility Dye(g)/water (100 g) [2]: 20 g of dye/100 g of water
Solubility Evaluation [2]: .circleincircle. (solubility is not less than 15)
results of AMES test [3]: false positive or positive
